Literature values, collected in patent US20240148640A1, “TOPICAL OXYBUTYNIN FOR HOT FLASHES” (CELISTA PHARMACEUTICALS LLC, priority 2022, published 2024).

CCN(CC)CC#CCOC(=O)C(O)(c1ccccc1)C1CCCCC1 (centres unmarked) [oxybutynin]
reduction of hot flashes (given orally (Leon-Ferre et al., 2020)): 75% | frequency and intensity of hot flashes (women with frequent hot flashes, incl. breast cancer survivors on tamoxifen or aromatase inhibitors (Kligman et al., 2010)): reduced the frequency and intensity of hot flashes
